IC50 and inhibition data for 26 compounds are collected here from patent publication US11535611B2, “Pyrazolo[3,4-B]pyridines and imidazo[1,5-B]pyridazines as PDE1 inhibitors” (H. Lundbeck A/S, priority 2017, dated 2022).

Common to all, as to type: biochemical
One assay deals with PDE1A (Homo sapiens (Human), UniProt P54750). In words: PDE1 inhibition assay, PDE1A. Particulars: for IC50: 15 nM tritium labelled cAMP, 1 hr at room temperature, SPA beads; for inhibition at 10 µM: @ 10 μM compound; for inhibition at 1 µM: @ 1 μM compound. The protocol:
(§1) PDE1A, PDE1B and PDE1C assays were performed as follows: the assays were performed in 60 μL samples containing a fixed amount of the PDE1 enzyme (sufficient to convert 20-25% of the cyclic nucleotide substrate), a buffer (50 mM HEPES (4-(2-hydroxyethyl)-1-piperazineethanesulfonic acid) pH 7.6; 10 mM MgCl2; 0.02% Tween20), 0.1 mg/ml BSA (bovine serum albumin), 15 nM tritium labelled cAMP and varying amounts of inhibitors. Reactions were initiated by addition of the cyclic nucleotide substrate, and reactions were allowed to proceed for 1 hr at room temperature before being terminated through mixing with 20 μL (0.2 mg) yttrium silicate SPA beads (PerkinElmer). The beads were allowed to settle for 1 hour in the dark before the plates were counted in a Wallac 1450 Microbeta counter. The measured signals were converted to activity relative to an uninhibited control (100%) and IC50 values were calculated using XIFit (model 205, IDBS).

Another assay has as its target PDE1B (Homo sapiens (Human), UniProt Q01064). In words: PDE1 inhibition assay, PDE1B. Particulars: for IC50: 15 nM tritium labelled cAMP, 1 hr at room temperature, SPA beads, read-out: PDE1 B, IC50. The protocol:
as §1

The target in the next assay is PDE1C (Homo sapiens (Human), UniProt Q14123). Put plainly: PDE1 inhibition assay, PDE1C. Particulars: for IC50: 15 nM tritium labelled cAMP, 1 hr at room temperature, SPA beads, read-out: PDE1 C, IC50; for inhibition at 1 µM: @ 1 μM compound, read-out: PDE1 C, % inhibition @ 1 μM; for inhibition at 10 µM: @ 10 μM compound, read-out: PDE1 C, % inhibition @ 10 μM. The protocol:
as §1

PDE1A, sequence (P54750 whole entry): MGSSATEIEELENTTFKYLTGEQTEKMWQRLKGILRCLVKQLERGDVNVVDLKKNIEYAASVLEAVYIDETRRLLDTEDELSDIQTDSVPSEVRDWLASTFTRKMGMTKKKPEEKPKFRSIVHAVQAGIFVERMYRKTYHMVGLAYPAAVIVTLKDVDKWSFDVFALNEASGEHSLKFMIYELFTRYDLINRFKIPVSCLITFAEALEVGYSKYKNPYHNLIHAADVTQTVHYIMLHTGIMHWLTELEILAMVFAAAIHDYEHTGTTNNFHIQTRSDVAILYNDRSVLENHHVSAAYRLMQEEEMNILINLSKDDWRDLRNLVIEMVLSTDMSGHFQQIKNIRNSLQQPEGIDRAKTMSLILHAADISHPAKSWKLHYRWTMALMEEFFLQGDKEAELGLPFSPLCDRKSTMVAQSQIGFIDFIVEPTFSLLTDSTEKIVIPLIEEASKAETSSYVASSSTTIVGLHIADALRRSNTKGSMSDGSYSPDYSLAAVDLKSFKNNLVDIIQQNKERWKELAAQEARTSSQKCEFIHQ
PDE1C, sequence (Q14123 whole entry): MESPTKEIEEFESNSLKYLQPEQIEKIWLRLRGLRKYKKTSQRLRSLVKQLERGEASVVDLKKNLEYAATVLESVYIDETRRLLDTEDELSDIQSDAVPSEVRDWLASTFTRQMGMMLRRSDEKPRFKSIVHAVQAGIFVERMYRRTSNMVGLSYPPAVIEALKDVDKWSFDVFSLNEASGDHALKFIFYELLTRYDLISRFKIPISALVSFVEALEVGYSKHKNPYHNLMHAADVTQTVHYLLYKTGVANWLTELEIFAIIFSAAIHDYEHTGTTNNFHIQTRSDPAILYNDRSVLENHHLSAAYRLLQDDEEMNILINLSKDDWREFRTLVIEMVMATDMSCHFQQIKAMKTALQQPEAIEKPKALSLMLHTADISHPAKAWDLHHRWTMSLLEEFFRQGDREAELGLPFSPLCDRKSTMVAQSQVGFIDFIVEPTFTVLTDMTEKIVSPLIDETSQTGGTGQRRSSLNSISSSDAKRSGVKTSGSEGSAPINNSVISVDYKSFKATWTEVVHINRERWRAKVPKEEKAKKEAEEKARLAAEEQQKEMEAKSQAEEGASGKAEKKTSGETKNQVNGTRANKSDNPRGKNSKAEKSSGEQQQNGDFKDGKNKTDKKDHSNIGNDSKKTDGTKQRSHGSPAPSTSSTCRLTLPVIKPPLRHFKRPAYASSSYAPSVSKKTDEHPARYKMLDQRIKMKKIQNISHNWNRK
PDE1B, sequence (Q01064 whole entry): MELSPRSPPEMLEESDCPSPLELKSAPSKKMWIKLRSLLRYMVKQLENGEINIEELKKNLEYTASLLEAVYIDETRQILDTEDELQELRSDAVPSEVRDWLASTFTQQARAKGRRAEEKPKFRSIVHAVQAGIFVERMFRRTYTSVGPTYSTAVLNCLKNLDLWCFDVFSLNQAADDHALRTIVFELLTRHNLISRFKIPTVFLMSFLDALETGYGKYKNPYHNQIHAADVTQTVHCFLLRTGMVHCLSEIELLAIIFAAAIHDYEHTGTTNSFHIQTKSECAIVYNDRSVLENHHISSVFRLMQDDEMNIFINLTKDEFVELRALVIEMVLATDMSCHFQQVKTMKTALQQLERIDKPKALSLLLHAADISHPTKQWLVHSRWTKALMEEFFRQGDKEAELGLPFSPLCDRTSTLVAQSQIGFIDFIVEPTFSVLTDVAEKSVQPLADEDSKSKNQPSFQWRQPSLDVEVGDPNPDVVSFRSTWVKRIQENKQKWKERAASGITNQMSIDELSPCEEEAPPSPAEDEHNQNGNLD

For orientation: IC50 means the concentration at which inhibition is half-maximal. As for `CCOc1ncccc1-c1cc(NCC2CC(=O)N(C)C2)c2c(n1)c(C)nn2C(C)C` (stereo not drawn) [Example 68, 4-[[[5-(2-ethoxy-3-pyridyl)-1-isopropyl-3-methyl-pyrazolo[4,3-b]pyridin-7-yl]amino]methyl]-1-methyl-pyrrolidin-2-one], the IC50 against PDE1A worked out at 53 nM; at PDE1B, 12 nM; on PDE1C, 88 nM.
Taken in the same sequence, the figures for `CCOc1ncccc1-c1cc(N2CCCC2)c2c(cnn2CC)n1` [Example 16, 5-(2-ethoxy-3-pyridyl)-1-ethyl-7-pyrrolidin-1-yl-pyrazolo[4,3-b]pyridine] were 461 nM, 129 nM and 1820 nM.
In general, inhibition refers to the relative decrease from the control value, in per cent. For `CCOc1ncccc1-c1cc(N2CCCC2)c2c(cnn2C2COC2)n1` [Example 4, 5-(2-ethoxy-3-pyridyl)-1-(oxetan-3-yl)-7-pyrrolidin-1-yl-pyrazolo[4,3-b]pyridine], the IC50 against PDE1A was determined as 641 nM; at PDE1B, 95 nM. Further, the inhibition at 1 µM on PDE1C is 56%.
As to `COc1ccncc1-c1cc(N[C@@H]2CCOC2)c2c(cnn2C(C)C)n1` [Example 31, 1-isopropyl-5-(4-methoxy-3-pyridyl)-N-[(3R)-tetrahydrofuran-3-yl]pyrazolo[4,3-b]pyridin-7-amine], the inhibition at 10 µM against PDE1A was determined as 63%; at PDE1C it was 76%. Further, the IC50 on PDE1B is 1230 nM.
With `Cc1cc2c(nc1-c1ccccc1)c(C)nn2C(C)C` [Example 60, 1-isopropyl-3,6-dimethyl-5-phenyl-pyrazolo[4,3-b]pyridine], the IC50 is 225 nM at PDE1A, 122 nM on PDE1B and 198 nM on PDE1C.
In turn, `CCOc1ncccc1-c1cc(NC2CCOC2)c2c(cnn2C2CCOC2)n1` (stereo not drawn) [Example 2, 5-(2-ethoxy-3-pyridyl)-N,1-di(tetrahydrofuran-3-yl)pyrazolo[4,3-b]pyridin-7-amine] displayed an inhibition at 1 µM against PDE1A of 13%. Also, the IC50 at PDE1B is 445 nM; at PDE1C, 403 nM.
Take `CCOc1ccc(-c2cc(N[C@@H]3CCOC3)c3c(cnn3C(C)C)n2)cc1` [Example 33, 5-(4-ethoxyphenyl)-1-isopropyl-N-[(3R)-tetrahydrofuran-3-yl]pyrazolo[4,3-b]pyridin-7-amine]: the inhibition at 10 µM on PDE1A came to 20%; at PDE1B (@ 10 μM compound, read-out: PDE1 B, % inhibition @ 10 μM), 46%; on PDE1C, 24%.
With `CCCn1ncc2nc(-c3cccnc3OCC)cc(N[C@@H]3CCOC3)c21` (single isomer, unassigned) [Example 23, 5-(2-ethoxy-3-pyridyl)-1-propyl-N-[tetrahydrofuran-3-yl]pyrazolo[4,3-b]pyridin-7-amine], the IC50 at PDE1A stood at 481 nM; on PDE1B, 171 nM; at PDE1C, 2540 nM.
For the compound `CCOc1ncccc1-c1cc(N2CCCC2)c2c(cnn2C(C)C)n1` [Example 17, 5-(2-ethoxy-3-pyridyl)-1-isopropyl-7-pyrrolidin-1-yl-pyrazolo[4,3-b]pyridine], the IC50 was found to be 353 nM on PDE1A and 83 nM at PDE1B. The inhibition at 1 µM on PDE1C turned out to be 50%.
As for `CCOc1ncccc1-c1cc(NC2CCC(OC)C2)c2c(cnn2C)n1` (stereo not drawn) [Example 88, 5-(2-ethoxy-3-pyridyl)-N-(3-methoxycyclopentyl)-1-methyl-pyrazolo[4,3-b]pyridin-7-amine], the inhibition at 1 µM on PDE1A came out at 16%; on PDE1C it was 47%. In addition, the IC50 at PDE1B amounted to 311 nM.
`COc1ncc(C)cc1-c1cc(N[C@@H]2CCOC2)c2c(cnn2C(C)C)n1` [Example 52, 1-isopropyl-5-(2-methoxy-5-methyl-3-pyridyl)-N-[(3R)-tetrahydrofuran-3-yl]pyrazolo[4,3-b]pyridin-7-amine] displayed an inhibition at 10 µM on PDE1A of 56%. The half-inhibitory concentration (IC50) is 1320 nM on PDE1B and 1820 nM on PDE1C.
`COc1ncncc1-c1cc(N[C@@H]2CCOC2)c2c(cnn2C(C)C)n1` [Example 49, 1-isopropyl-5-(4-methoxypyrimidin-5-yl)-N-[(3R)-tetrahydrofuran-3-yl]pyrazolo[4,3-b]pyridin-7-amine]: at PDE1A, at 10 µM the inhibition was 43%. In addition, the IC50 at PDE1B was found to be 2670 nM; on PDE1C it was 1870 nM.
With `CCOc1ncccc1-c1cc(NC[C@H]2CCCO2)c2c(cnn2C(C)C)n1` [Example 7, 5-(2-ethoxy-3-pyridyl)-1-isopropyl-N-[[(2R)-tetrahydrofuran-2-yl]methyl]pyrazolo[4,3-b]pyridin-7-amine], the IC50 against PDE1A is 449 nM; on PDE1B it was 83 nM; on PDE1C, 1710 nM.
As to `CCOc1ncccc1-c1cc(N2CCC(C)(F)C2)c2c(cnn2C)n1` (racemic) [Example 87, (±)-5-(2-ethoxy-3-pyridyl)-7-(3-fluoro-3-methyl-pyrrolidin-1-yl)-1-methyl-pyrazolo[4,3-b]pyridine], the values for the inhibition at 1 µM on PDE1A and on PDE1C were 42% and 26%, respectively. Also, the IC50 at PDE1B was 376 nM.
`CCCn1ncc2nc(-c3cccnc3OCC)cc(N3CCCC3)c21` [Example 18, 5-(2-ethoxy-3-pyridyl)-1-propyl-7-pyrrolidin-1-yl-pyrazolo[4,3-b]pyridine]: the IC50 at PDE1A came out at 637 nM; on PDE1B, 336 nM. Besides, the inhibition at 10 µM at PDE1C is 64%.
For the compound `CC(C)n1ncc2nc(Cc3ccc(F)cc3)cc(N[C@@H]3CCOC3)c21` [Example 43, 5-[(4-fluorophenyl)methyl]-1-isopropyl-N-[(3R)-tetrahydrofuran-3-yl]pyrazolo[4,3-b]pyridin-7-amine], the IC50 on PDE1A turned out to be 2860 nM; at PDE1B, 1220 nM; at PDE1C, 621 nM.
Take `CCOc1ncccc1-c1cc(N[C@@H]2CCOC2)c2c(cnn2CC)n1` (single isomer, unassigned) [Example 19, 5-(2-ethoxy-3-pyridyl)-1-ethyl-N-[tetrahydrofuran-3-yl]pyrazolo[4,3-b]pyridin-7-amine]: the figures for the IC50 at PDE1A, on PDE1B and at PDE1C were 326 nM, 86 nM and 3060 nM, respectively.
The like results for `CCOc1ncccc1-c1ccn2c([C@H](C)CC)nc(C)c2n1` (single isomer, unassigned) [Example 83, 2-(2-ethoxy-3-pyridyl)-8-methyl-6-[1-methylpropyl]imidazo[1,5-a]pyrimidine] were, in that order, 51 nM, 6 nM and 77 nM.
For `COCc1ncccc1-c1cc(N[C@@H]2CCOC2)c2c(cnn2C(C)C)n1` [Example 58, 1-isopropyl-5-[2-(methoxymethyl)-3-pyridyl]-N-[(3R)-tetrahydrofuran-3-yl]pyrazolo[4,3-b]pyridin-7-amine], the inhibition at 10 µM on PDE1A came to 52%; on PDE1C, 31%. Also, the IC50 on PDE1B is 2190 nM.
As to `CCOc1ncccc1-c1cc(N[C@@H]2CCOC2)c2c(cnn2CC)n1` (single isomer, unassigned) [Example 20, 5-(2-ethoxy-3-pyridyl)-1-ethyl-N-[tetrahydrofuran-3-yl]pyrazolo[4,3-b]pyridin-7-amine], the IC50 on PDE1A is 467 nM; on PDE1B it was 179 nM; on PDE1C, 957 nM.
Taken in the same sequence, the figures for `CCOc1ncccc1-c1ccn2c(C(C)C)nc(C)c2n1` [Example 72, 2-(2-ethoxy-3-pyridyl)-6-isopropyl-8-methyl-imidazo[1,5-a]pyrimidine] were 96 nM, 34 nM and 213 nM.
Consider `CC(C)n1ncc2nc(-c3cccc4c3OCCO4)cc(N[C@@H]3CCOC3)c21` [Example 42, 5-(2,3-dihydro-1,4-benzodioxin-5-yl)-1-isopropyl-N-[(3R)-tetrahydrofuran-3-yl]pyrazolo[4,3-b]pyridin-7-amine], for which the 50% inhibitory concentration (IC50) against PDE1A turned out to be 1570 nM; at PDE1B, 546 nM. Moreover, the inhibition at 10 µM on PDE1C turned out to be 68%.
Turning to `COc1cncc(-c2cc(N[C@@H]3CCOC3)c3c(cnn3C(C)C)n2)c1` [Example 47, 1-isopropyl-5-(5-methoxy-3-pyridyl)-N-[(3R)-tetrahydrofuran-3-yl]pyrazolo[4,3-b]pyridin-7-amine], the values for the IC50 at PDE1A, at PDE1B and at PDE1C were 1520 nM, 599 nM and 1550 nM, respectively.
The like results for `CCOc1nccc(C)c1-c1cc(N[C@@H]2CCOC2)c2c(cnn2C(C)C)n1` [Example 34, 5-(2-ethoxy-4-methyl-3-pyridyl)-1-isopropyl-N-[(3R)-tetrahydrofuran-3-yl]pyrazolo[4,3-b]pyridin-7-amine] were, in that order, 380 nM, 157 nM and 580 nM.
Take `CCOc1ncccc1-c1ccn2c(C3COC3)nc(C)c2n1` [Example 79, 2-(2-ethoxy-3-pyridyl)-8-methyl-6-(oxetan-3-yl)imidazo[1,5-a]pyrimidine]: the IC50 against PDE1A was 406 nM; on PDE1B it was 78 nM; at PDE1C, 632 nM.
Consider `Cc1cccnc1-c1cc(N[C@@H]2CCOC2)c2c(cnn2C(C)C)n1` [Example 39, 1-isopropyl-5-(3-methyl-2-pyridyl)-N-[(3R)-tetrahydrofuran-3-yl]pyrazolo[4,3-b]pyridin-7-amine], for which the values for the inhibition at 10 µM at PDE1A and at PDE1C were 61% and 59%, respectively. For the same compound, the IC50 on PDE1B is 1890 nM.
